Results taken from patent publication US8175815B2, “Method for assessing absorption properties of low solubility compounds” (F. Hoffmann-La Roche AG, priority 2006, dated 2012).
Converted amounts (≈) assume the structure as drawn. “And” between values parts separate entries of the source, which are not always exact repeats. Equal values may be shown once. Read-outs that look alike come from different tables or passages of the source. Values belong to the compound of their own block, whether it stands above or below them.

Columns and labels:
[1] = mice; +HP-β-CD / no excip.
[2] = Double-Sink PAMPA permeability with and without excipients
[3] = flux function combining permeability and solubility measurement results; settings: for flux increase factor: 1% HP-β-CD vs excipient-free; for net flux effect due to 1% HP-β-CD: pH 5.0, 6.2, 7.4, FIG. 13
[4] = equilibrium solubility-pH, direct-UV microtitre plate (μSOL Evolution) with and without excipients; settings: for pKa at 18 h / solubility at 18 h: aqueous universal buffer (pION); for pKa at 18 h: saturated drug suspension, pKa^APP ± SD; for solubility at 18 h: 25 °C, kinetic from dmso stock
[5] = mice, oral, cited from earlier work
[6] = 18 h
[7] = PAMPA, 30 min, 50 μM
physchem [8] = settings: pKa^APP ± SD
physchem [9] = experiment: physchem
[10] = PAMPA, pH 5
[11] = buffer + 1% w/v HP-b-CD, * = anticipated salt limit exceeded
[12] = buffer, * = anticipated salt limit exceeded
[13] = apparent/true molecular weight, 40 μm ABL assumed, 0 mM NaTC (first value)
[14] = apparent ionization constant in saturated solution, excipient none
[15] = apparent ionization constant, excipient 3 mM NaTC
[16] = apparent ionization constant, excipient 15 mM NaTC
[17] = apparent ionization constant, excipient 0.1M KCl
[18] = apparent ionization constant, excipient 0.2M KCl
[19] = apparent ionization constant, excipient 1% HP-b-CD
[20] = apparent ionization constant, excipient 1% NMP
[21] = apparent ionization constant, excipient 1% PEG400
[22] = apparent ionization constant, excipient 1% PG
[23] = apparent ionization constant, excipient 5% PEG400
[24] = apparent ionization constant, excipient 5% PG
[25] = apparent ionization constant, excipient […] HP-b-CD
[26] = apparent ionization constant, excipient […] NMP
[27] = apparent ionization constant, excipient […] PEG400
[28] = apparent ionization constant, excipient […] PG

- net flux effect due to 1% HP-β-CD [3]: cross-over pattern as a function of pH
Compound: CCCCc1oc2ccccc2c1C(=O)c1cc(I)c(OCCN(CC)CC)c(I)c1 [amiodarone]

- PABL 0 mM NaTC [7]: 941
- PABL 3 mM NaTC [7]: 922
- PABL 15 mM NaTC [7]: 47
- MW*/MW ([2]; 3 mM NaTC (second value)): 1
- MW*/MW ([2]; 15 mM NaTC (third value)): 1100
- MW*/MW [2, 13]: ~1
- pKa (physchem [9]): 6.22 ± 0.15
- pKa at 18 h [4, 14]: 5.8 ± 0.1
- pKa at 18 h [4, 15]: 5.6 ± 0.1
- pKa at 18 h [4, 16]: 5.2 ± 0.1
- pKa at 18 h [4, 17]: 6 ± 0.1
- pKa at 18 h [4, 18]: 5.9 ± 0.1
- pKa at 18 h [4, 19]: 5.6 ± 0.1
- pKa at 18 h [4, 20]: 5.7 ± 0.1
- pKa at 18 h [4, 21]: 5.9 ± 0.2
- pKa at 18 h [4, 22]: 5.8 ± 0.1
- pKa at 18 h [4, 23]: 6.2 ± 0.1
- pKa at 18 h [4, 24]: 5.8 ± 0.1
- pKa at 18 h [4, 25]: 5.8 ± 0.1
- pKa at 18 h [4, 26]: 5.8 ± 0.1
- pKa at 18 h [4, 27]: 6.8 ± 0.1
- pKa at 18 h [4, 28]: 5.8 ± 0.1
- So ± SD ([4]; excipient 3 mM NaTC): 5.3 ± 0.9 µg/mL
- So^APP ± SD ([4]; excipient 3 mM NaTC): 24 ± 2 µg/mL
- So ± SD ([4]; excipient 15 mM NaTC): 9.9 ± 1.7 µg/mL
- So^APP ± SD ([4]; excipient 15 mM NaTC): 110 µg/mL and 110 ± 5 µg/mL
- So ± SD ([4]; excipient 0.1M KCl): 3.3 ± 0.8 µg/mL
- So^APP ± SD ([4]; excipient 0.1M KCl): 5.2 ± 0.8 µg/mL
- So ± SD ([4]; excipient 0.2M KCl): 3.1 ± 0.7 µg/mL
- So^APP ± SD ([4]; excipient 0.2M KCl): 5.8 ± 0.9 µg/mL
- So ± SD ([4]; excipient 1% HP-b-CD): 3.2 ± 0.7 µg/mL
- So^APP ± SD ([4]; excipient 1% HP-b-CD): 15 ± 1 µg/mL
- So ± SD ([4]; excipient 1% NMP): 2.4 ± 0.7 µg/mL
- So^APP ± SD ([4]; excipient 1% NMP): 8.1 ± 1.5 µg/mL
- So ± SD ([4]; excipient 1% PEG400): 5.0 ± 1.9 µg/mL
- So^APP ± SD ([4]; excipient 1% PEG400): 11 ± 3 µg/mL
- So ± SD ([4]; excipient 1% PG): 2.7 ± 0.2 µg/mL
- So^APP ± SD ([4]; excipient 1% PG): 6.5 ± 0.3 µg/mL
- So ± SD ([4]; excipient 5% PEG400): 13.7 ± 2.4 µg/mL
- So^APP ± SD ([4]; excipient 5% PEG400): 14 ± 1 µg/mL
- So ± SD ([4]; excipient 5% PG): 3.9 ± 0.8 µg/mL
- So^APP ± SD ([4]; excipient 5% PG): 9.8 ± 1.3 µg/mL
- So ± SD ([4]; excipient […] HP-b-CD): 2.8 ± 0.7 µg/mL
- So^APP ± SD ([4]; excipient […] HP-b-CD): 7.1 ± 0.8 µg/mL
- So ± SD ([4]; excipient […] NMP): 2.2 ± 0.6 µg/mL
- So^APP ± SD ([4]; excipient […] NMP): 5.9 ± 1.1 µg/mL
- So^APP ± SD ([4]; excipient […] PEG400): 4.6 ± 1.2 µg/mL
- So ± SD ([4]; excipient […] PG): 2.1 ± 0.3 µg/mL
- So^APP ± SD ([4]; excipient […] PG): 5.8 ± 0.5 µg/mL
- So ± SD ([4]; excipient none): 2.3 ± 0.7 µg/mL
- So^APP ± SD ([4]; excipient none): 6.2 ± 1.1 µg/mL and 6.2 µg/mL
Compound: OCCN(CCO)c1nc(N2CCCCC2)c2nc(N(CCO)CCO)nc(N3CCCCC3)c2n1 [dipyridamole]
- net flux effect due to 1% HP-β-CD [10]: the flux remains unaffected by the excipient

Continued, compound first:

Compound: CCCSc1ccc2nc(NC(=O)OC)[nH]c2c1 [albendazole]
- AUC Ratio [1]: 1.4
- Cmax Ratio [1]: 4.3
- Tmax Ratio [1]: 0.4
- Po ([2]; buffer): 4.28 ± 1.59 E−04 cm s^−1
- Po ([2]; buffer + 1% w/v HP-b-CD): 3.12 ± 0.30 E−05 cm s^−1
- flux increase factor ([3]; pH 5.0): 3.0
- flux increase factor ([3]; pH 6.2): 3.1
- flux increase factor ([3]; pH 7.4): 3.1
- average flux gain factor ([3]; 1% HP-β-CD, average over pH 5.0, 6.2, 7.4): 3.1
- net flux effect due to 1% HP-β-CD [3]: gains, uniformly at the three pH values of interest
- So^APP ([4]; buffer): 0.88 ± 0.07 µg/mL
- S(pH 7.4) ([4]; buffer + 1% w/v HP-b-CD): 34 μg mL^−1
- So^APP ([4]; buffer + 1% w/v HP-b-CD): 34 ± 1 µg/mL
- S(pH 5.0) [4, 11]: 34 μg mL^−1
- S(pH 6.2) [4, 11]: 34 μg mL^−1
- S(pH 5.0) [4, 12]: 1.0 μg mL^−1
- S(pH 6.2) [4, 12]: 0.89 μg mL^−1
- S(pH 7.4) [4, 12]: 0.88 μg mL^−1
- Cmax +HP-β-CD ([5]; HP-β-CD (20% w/v)): 390 ng/mL
- Tmax +HP-β-CD ([5]; HP-β-CD (20% w/v)): 19.8 min
- Cmax no excip. ([5]; suspension of excipient-free drug): 90 ng/mL
- Tmax no excip. [5]: 45 min

Compound: COc1ccc(CCN2CCC(Nc3nc4ccccc4n3Cc3ccc(F)cc3)CC2)cc1 [astemizole]
- So ± SD [6]: 4.0 ± 2.9 µg/mL
- PABL 0 mM NaTC [7]: 1080
- PABL 3 mM NaTC [7]: 561
- PABL 15 mM NaTC [7]: 9
- determined ABL thickness hABL [7]: < 50 μm
- pKa at 18 h (physchem [8]): 9.1 ± 0.5
- MW*/MW ([2]; 3 mM NaTC (second value)): 5
- MW*/MW ([2]; 15 mM NaTC (third value)): 56000
- MW*/MW [2, 13]: ~1
- pKa (physchem [9]): 5.99 ± 0.06

Compound: Clc1ccccc1C(c1ccccc1)(c1ccccc1)n1ccnc1 [clotrimazole]
- PABL 0 mM NaTC [7]: 2400
- PABL 3 mM NaTC [7]: 604
- determined ABL thickness hABL [7]: < 50 μm
- pKa at 18 h (physchem [8]): 7.4 ± 1.1
- MW*/MW ([2]; 3 mM NaTC (second value)): 5
- MW*/MW [2, 13]: < 1
- pKa (physchem [9]): 6.02 ± 0.05

Compound: Cc1cccc(Nc2ccccc2C(=O)O)c1C [mefenamic acid]
- PABL 0 mM NaTC [7]: 782
- PABL 3 mM NaTC [7]: 909
- PABL 15 mM NaTC [7]: 795
- refined ABL thickness [7]: exceeding 75 μm
- net flux effect due to 1% HP-β-CD [10]: In acid solutions, flux is helped by 1% HP-β-CD, but in neutral solutions, there is a net loss
- MW*/MW ([2]; 3 mM NaTC (second value)): 3
- MW*/MW ([2]; 15 mM NaTC (third value)): 4
- MW*/MW [2, 13]: 4
- pKa (physchem [9]): 4.39 ± 0.09
- solubility at 18 h ([4]; aqueous buffer): 0.021 ± 0.005 µg/mL (≈ 0.087 µM)
- solubility at 18 h ([4]; aqueous with cosolvent or surfactant or cyclodextrin): < 3 µg/mL
- pKa at 18 h [4, 14]: 4.3 ± 0.3
- pKa at 18 h [4, 15]: 5.8 ± 0.1
- pKa at 18 h [4, 16]: 5.7 ± 0.1
- pKa at 18 h [4, 17]: 4.4 ± 0.4
- pKa at 18 h [4, 18]: 4.3
- pKa at 18 h [4, 19]: 5.2 ± 0.1
- pKa at 18 h [4, 20]: 4.4 ± 0.2
- pKa at 18 h [4, 21]: 4.5
- pKa at 18 h [4, 22]: 4 ± 0.3
- pKa at 18 h [4, 23]: 4.5 ± 1.1
- pKa at 18 h [4, 24]: 4
- pKa at 18 h [4, 25]: 4.6 ± 0.1
- pKa at 18 h [4, 26]: 4.1 ± 0.6
- pKa at 18 h [4, 27]: 4.5 ± 0.2
- pKa at 18 h [4, 28]: 4.1 ± 0.3
- So ± SD ([4]; excipient 3 mM NaTC): 0.11 ± 0.03 µg/mL
- So^APP ± SD ([4]; excipient 3 mM NaTC): 1.9 ± 0.4 µg/mL
- So ± SD ([4]; excipient 15 mM NaTC): 0.10 ± 0.03 µg/mL
- So^APP ± SD ([4]; excipient 15 mM NaTC): 1.4 ± 0.3 µg/mL
- So^APP ± SD ([4]; excipient 0.1M KCl): 0.023 ± 0.005 µg/mL
- So^APP ± SD ([4]; excipient 0.2M KCl): 0.021 µg/mL
- So ± SD ([4]; excipient 1% HP-b-CD): 0.61 µg/mL
- So^APP ± SD ([4]; excipient 1% HP-b-CD): 2.9 ± 0.5 µg/mL
- So^APP ± SD ([4]; excipient 1% NMP): 0.062 ± 0.010 µg/mL
- So^APP ± SD ([4]; excipient 1% PEG400): 0.021 µg/mL
- So^APP ± SD ([4]; excipient 1% PG): 0.021 µg/mL
- So^APP ± SD ([4]; excipient 5% PEG400): 0.028 µg/mL
- So^APP ± SD ([4]; excipient 5% PG): 0.056 µg/mL
- So ± SD ([4]; excipient […] HP-b-CD): 0.28 ± 0.02 µg/mL
- So^APP ± SD ([4]; excipient […] HP-b-CD): 0.34 ± 0.02 µg/mL
- So^APP ± SD ([4]; excipient […] NMP): 0.019 ± 0.009 µg/mL
- So^APP ± SD ([4]; excipient […] PEG400): 0.004 ± 0.002 µg/mL
- So^APP ± SD ([4]; excipient […] PG): 0.021 µg/mL
- intrinsic solubility in excipient free buffer ([4]; excipient free): 0.021 µg/mL
- So^APP ± SD ([4]; excipient none): 0.021 ± 0.005 µg/mL
- salt limit (sdiff 3-4 approximation) ([4]; three orders of magnitude above excipient-free intrinsic solubility): 21 µg/mL
